Measured values as given in US10167283B2, “β-lactamase inhibitors and uses thereof” (priority 2015, dated 2019).
Where a name gives a salt, the structure may show the parent alone.

How the values were obtained:
TEM-1 = target: T1, TEM-1 (Escherichia coli, UniProt P62593); assay: β-lactamase inhibition, Nitrocefin hydrolysis; format: biochemical; settings: Experiment 2; enzyme 1 nM, Nitrocefin 0.1 mM; read-out: IC50 TEM-1
T1 construct: purchased
Procedure: (§1) Nitrocefin, a kind of cephalosporin antibiotics, is sensitive to most of β-lactamases, and changes in color after being hydrolyzed. The hydrolysis rate of Nitrocefin was measured by real-time recording corresponding absorbance of reaction system. β-Lactamase inhibitors could inhibit hydrolysis of the enzymes to Nitrocefin, and reduce hydrolysis rate. By measuring reaction rates in the same reaction system under different inhibitor concentrations, the IC50 (half maximal inhibitory concentration) values of inhibitors were calculated.
(§2) Nitrocefin was dissolved in DMSO to form a solution with concentration of 2 mM, which was sub-packaged and stored at −20° C. The concentration of purchased β-lactamases mother liquor was 1 mg/mL, and the mother liquor was dissolved in 50% glycerol. A part of mother liquor was taken and diluted by 1000 times in reaction solution, sub-packaged and stored at ˜20° C.
(§3) The compounds to be tested were dissolved in DMSO to form a mother liquor with concentration of 10 mM. If not used that day, the mother liquor was stored at −20° C. Its test final concentrations were: 100 μM, 25 μM, 6.25 μM, 1.563 μM, 390.6 nM, 97.66 nM, 24.41 nM, 6.10 nM, 1.53 nM, 0.381 nM, 0.095 nM.

AmpC = target: T2, AmpC (UniProt P05364); assay: β-lactamase inhibition, Nitrocefin hydrolysis; format: biochemical; settings: read-out: IC50 AmpC; Experiment 2; enzyme 1.6 nM, Nitrocefin 0.1 mM
T2 construct: The concentration of purchased β-lactamases mother liquor was 1 mg/mL, and the mother liquor was dissolved in 50% glycerol
Procedure: as §1, §2, §3

KPC-2 = target: T3, KPC-2 (Klebsiella pneumoniae, UniProt Q9F663); assay: β-lactamase inhibition, Nitrocefin hydrolysis; format: biochemical; settings: Experiment 2; enzyme 1.28 nM, Nitrocefin 0.1 mM; read-out: IC50 KPC-2
T3 construct: purchased
Procedure: as §1, §2, §3

CTX-M-1 = target: T4, CTX-M-1 (Escherichia coli, UniProt P28585); assay: β-lactamase inhibition, Nitrocefin hydrolysis; format: biochemical; settings: Experiment 2; enzyme 0.2 nM, Nitrocefin 0.1 mM
T4 construct: purchased
Procedure: as §1, §2, §3

[1] = test system: Escherichia coli 7438eco-639 (NDM, ESBLs); assay: In vitro antibacterial activity on clinically separated CRE strain, agar dilution MIC; format: cell-based; settings: Table 3, 7438eco-639 Escherichia coli
From the text: (§4) Experimental strains: all experimental standard bacterial strains for enzyme production were purchased from ATCC, and the clinically separated CRE strain was purchased from Southwest Hospital of the Third Military Medical University.
(§5) Experimental Method: Agar dilution method, referring to M100-S23: Performance Standards for Antimicrobial Susceptibility Testing: Twenty-Third Informational Supplement (Clinical And Laboratory Standards Institute, 2013). Minimal inhibitory concentration (MIC, μg/mL) was calculated.

[2] = test system: Enterobacter cloacae 7494ecl-295 (NDM, ESBLs, AmpC); assay: as above; format: cell-based; settings: Table 3, 7494ecl-295 Enterobacter cloacae
From the text: as §4, §5

[3] = test system: Klebsiella pneumoniae 7463kpn-610 (ESBLs); assay: as above; format: cell-based; settings: Table 3, 7463kpn-610 Klebsiella pneumoniae
From the text: as §4, §5

[4] = test system: Enterobacter cloacae 7498ecl-299 (ESBLs, AmpC); assay: as above; format: cell-based; settings: Table 3, 7498ecl-299 Enterobacter cloacae
From the text: as §4, §5

[5] = test system: Enterobacter cloacae 7513ecl-314 (AmpC); assay: as above; format: cell-based; settings: Table 3, 7513ecl-314 Enterobacter cloacae
From the text: as §4, §5

[6] = test system: Citrobacter freundii 7521cfr-169 (NDM, ESBLs, AmpC); assay: as above; format: cell-based; settings: Table 3, 7521cfr-169 Citrobacter freundii
From the text: as §4, §5

[7] = test system: Klebsiella pneumoniae 7450kpn-597 (KPC, ESBLs); assay: as above; format: cell-based; settings: Table 3, 7450kpn-597 Klebsiella pneumoniae
From the text: as §4, §5

[8] = test system: Enterobacter cloacae 7495ecl-296 (IMP, ESBLs, AmpC); assay: as above; format: cell-based; settings: Table 3, 7495ecl-296 Enterobacter cloacae
From the text: as §4, §5

[9] = test system: Citrobacter freundii 7520cfr-167 (NDM, OXA-10, ESBLs); assay: as above; format: cell-based; settings: Table 3, 7520cfr-167 Citrobacter freundii
From the text: as §4, §5

[10] = test system: Klebsiella pneumoniae 7484kpn-631 (IMP, ESBLs); assay: as above; format: cell-based; settings: Table 3, 7484kpn-631 Klebsiella pneumoniae
From the text: as §4, §5

[11] = test system: Escherichia coli BAA-2523 (OXA-48); assay: In vitro antibacterial activity, agar dilution MIC; format: cell-based; settings: BAA2523, Table 2, BAA-2523 Escherichia coli, OXA-48, read-out: MIC
From the text: as §4, §5

[12] = test system: Enterobacter hormaechei BAA-2082 (KPC); assay: In vitro antibacterial activity, agar dilution MIC; format: cell-based; settings: BAA2082; Table 2; BAA-2082 Enterobacter hormaechei, KPC; read-out: MIC
From the text: as §4, §5

[13] = test system: Klebsiella oxytoca ATCC-51983 (SHV-5); assay: In vitro antibacterial activity, agar dilution MIC; format: cell-based; settings: ATCC51983; Table 2; ATCC-51983 Klebsiella oxytoca, SHV-5; read-out: MIC
From the text: as §4, §5

[14] = test system: Klebsiella pneumoniae BAA-2524 (OXA-48); assay: In vitro antibacterial activity, agar dilution MIC; format: cell-based; settings: BAA2524; Table 2; BAA-2524 Klebsiella pneumoniae, OXA-48; read-out: MIC
From the text: as §4, §5

[15] = test system: Escherichia coli BAA-2452 (NDM-1); assay: In vitro antibacterial activity, agar dilution MIC; format: cell-based; settings: BAA2452, Table 2, BAA-2452 Escherichia coli, NDM-1, read-out: MIC
From the text: as §4, §5

[16] = test system: Klebsiella pneumoniae BAA-2146 (NDM-1); assay: In vitro antibacterial activity, agar dilution MIC; format: cell-based; settings: BAA2146, Table 2, BAA-2146 Klebsiella pneumoniae, NDM-1, read-out: MIC
From the text: as §4, §5

[17] = test system: Klebsiella pneumoniae BAA-1900 (KPC); assay: In vitro antibacterial activity, agar dilution MIC; format: cell-based; settings: BAA1900, Table 2, BAA-1900 Klebsiella pneumoniae, KPC, read-out: MIC
From the text: as §4, §5

[18] = test system: Enterobacter cloacae BAA-2341 (KPC); assay: In vitro antibacterial activity, agar dilution MIC; format: cell-based; settings: BAA2341; Table 2; BAA-2341 Enterobacter cloacae, KPC; read-out: MIC
From the text: as §4, §5

T3 sequence (Q9F663 25-293, looked up, species assumed): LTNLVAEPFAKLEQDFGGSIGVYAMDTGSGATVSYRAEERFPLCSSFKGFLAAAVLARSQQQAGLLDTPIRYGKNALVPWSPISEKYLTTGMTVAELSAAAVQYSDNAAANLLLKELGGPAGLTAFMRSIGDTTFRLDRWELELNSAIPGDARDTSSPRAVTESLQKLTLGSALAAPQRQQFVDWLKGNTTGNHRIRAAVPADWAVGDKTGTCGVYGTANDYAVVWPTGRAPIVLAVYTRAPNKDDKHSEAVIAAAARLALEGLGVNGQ
T1 sequence (P62593 24-286 limits assumed): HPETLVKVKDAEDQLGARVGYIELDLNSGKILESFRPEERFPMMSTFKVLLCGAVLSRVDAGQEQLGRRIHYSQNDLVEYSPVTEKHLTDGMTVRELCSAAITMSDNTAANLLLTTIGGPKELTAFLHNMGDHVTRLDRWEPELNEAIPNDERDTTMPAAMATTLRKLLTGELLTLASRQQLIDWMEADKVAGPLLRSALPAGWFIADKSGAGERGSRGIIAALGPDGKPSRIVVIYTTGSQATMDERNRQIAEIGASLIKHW
T4 sequence (P28585 29-291): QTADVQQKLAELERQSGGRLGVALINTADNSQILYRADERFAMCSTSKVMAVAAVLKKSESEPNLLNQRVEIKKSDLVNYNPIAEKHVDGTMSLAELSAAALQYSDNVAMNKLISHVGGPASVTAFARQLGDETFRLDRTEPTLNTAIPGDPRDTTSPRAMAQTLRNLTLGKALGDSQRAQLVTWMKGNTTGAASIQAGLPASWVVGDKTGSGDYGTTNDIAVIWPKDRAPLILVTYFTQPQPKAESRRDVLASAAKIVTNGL

Which results are given for `CN1CC2(CC(NC(=O)[C@@H]3CC[C@@H]4CN3C(=O)N4OS(=O)(=O)O)C2)C1` [Compound 6, sodium (2S,5R)-2-((2-methyl-2-azaspiro[3.3]heptan-6-yl)carbamoyl)-7-oxo-1,6-diazabicyclo[3.2.1]octan-6-yl hydrogen sulfate]?
IC50 (TEM-1): 30.1 nM; IC50 (AmpC): 17.7 nM; IC50 (KPC-2): 42.3 nM; IC50 (CTX-M-1): 40.8 nM; MIC [1]: 2 µg/mL; MIC [2]: 2 µg/mL; MIC [3]: 2 µg/mL; MIC [4]: 2 µg/mL; MIC [5]: 2 µg/mL; MIC [6]: 2 µg/mL; MIC [7]: 2 µg/mL; MIC [8]: 2 µg/mL; MIC [9]: 2 µg/mL; MIC [10]: 4 µg/mL; MIC [11]: 1 µg/mL; MIC [12]: 2 µg/mL; MIC [13]: 4 µg/mL; MIC [14]: 2 µg/mL; MIC [15]: 2 µg/mL; MIC [16]: 4 µg/mL; MIC [17]: 2 µg/mL; MIC [18]: 2 µg/mL
